According to article PMC3056768, “Conjugation to the Cell-Penetrating Peptide TAT Potentiates the Photodynamic Effect of Carboxytetramethylrhodamine” (PLoS ONE, 2011):
“Also recorded” adds a separate entry of the source.

Experiments:
[1] = test system: HeLa cells; assay: Photo-induced endosomal release (fluorescence imaging); format: cell-based, human
Experimental: (§1) HeLa (human cervical adenocarcinoma), COS-7 (SV40 transformed African green monkey kidney fibroblast-like cell line) were obtained from ATCC. COLO 316 (human ovarian carcinoma) were obtained from Robert Burghardt (Department of Veterinary Integrative Biosciences, Texas A&M University). Cells were cultured in DMEM supplemented with 10% fetal bovine serum (FBS) and maintained at 37°C in a humidified environment with 5% CO2. Cells were plated in 8-well dishes so that the cells were 70% confluent after 24 h, washed 3 times with L-15 media, incubated with 3 to 10 µM peptides at 37°C for 1 h, washed 3 times with L-15, and imaged. Alternatively, cells were incubated in L-15 at 4°C to inhibit the endocytic uptake of peptides. In this case, cells were imaged with the peptide still present in solution and the low temperature was maintained for the entire duration of imaging. For photosensitization, cells were exposed to light (λex = 560±20 nm) for the indicated time points. Plasma membrane disruption was detected by addition of the cell-impermeable DNA stain SYTOX Blue (5 µM) during or after photosensitization.
Ten to twenty images were acquired for each experiment.
The effect of light irradiation on cells that have endocytosed TMR-TAT was first investigated. HeLa cells were incubated in the presence of TMR-TAT (3 µM) for 1 hour at 37°C. After washing the cells, the sample was placed on a microscope and the cellular distribution of the peptide was assessed by fluorescence imaging. […] Within seconds, the content of many endosomes was released into the cell and the peptides were distributed throughout the cell. The peptide also accumulated at the nucleoli, a known effect of TAT [7]. […] The viability of non-irradiated cells was, in contrast, not affected by TMR-TAT (Fig. 2B); we found the cytotoxicity of the peptide to be negligible in the absence of light at concentrations up to 25 µM (supporting information Fig. S1).

[2] = test system: COS-7 cells; assay: Photosensitization of endocytosed peptide; format: cell-based, African green monkey; conditions: COS-7, 3 µM for 1 h, washed, 560 nm
Experimental: as §1, with “In this case, cells were imaged with the peptide still present in solution and the low temperature was maintained for the entire duration of imaging. For photosensitization, cells were exposed to light (λex = 560±20 nm) for the indicated time points.” left out
TMR-TAT induces cell-death upon light irradiation in HeLa or COS-7 cells. […] Cells were observed using a 10× objective using bright field and fluorescence imaging (CFP filter to detect SYTOX® Blue). […] Cells were observed using a 100× objective using bright field and fluorescence imaging (RFP filter to detect TMR-TAT, pseudocolored red, and CFP filter to detect SYTOX® Blue, pseudo colored blue). […]

[3] = test system: HeLa cells; assay: Endocytic uptake (fluorescence of endocytic organelles); format: cell-based, human; conditions: 1 h at 37°C, washed, fluorescence imaging (TMR-TAT 3 µM; TMR-K9 higher concentration)
Experimental: as §1
Supplementary file pone.0017732.s003.tif: Figure S3 Comparison of the fluorescence intensity of endosomes containing TMR-TAT (incubation at 3 µM) or TMR-K9 (incubation at 10 µM) in the images presented in Figure 1. Imaging was performed in both cases under identical conditions. The fluorescence intensities of all endocytic organelles was measured the Slidebook software. […] (TIF) Click here for additional data file.

[4] = test system: HeLa cells; assay: Toxicity in the absence of light (SYTOX green / DAPI); format: cell-based, human; conditions: concentrations up to 25 µM, 1 h in L-15 at 37°C, washed, additional 4 h, average of 3 experiments
Experimental: Supplementary file pone.0017732.s001.tif: Figure S1 Toxicity of TMR-TAT toward HeLa cells in the absence of light. TMR-TAT was incubated at the concentration indicated with cells for 1 hour in L-15 at 37°C. Cells were washed with fresh L-15 and incubated for an additional 4 h. Cells were then treated with L-15 containing DAPI and SYTOX® green. DAPI stains the nucleus of all cells while SYTOX® green only stains the nucleus of dead cells. Cells were imaged by fluorescence microscopy using the DAPI and FITC filters to detect DAPI and SYTOX® green, respectively. For each experiments, five representative images were acquired using the 20× objective and the percentage of dead cells were calculated from the ratio of cells stained by SYTOX® green divided by the number of cells stained by DAPI. The reported data is the average of 3 experiments (3×5 images, ≥1000 cells/experiments) and the error bar represents the standard deviation. (TIF) Click here for additional data file.

## CN(C)c1ccc2c(c1)Oc1cc(N(C)C)ccc1C21OC(=O)c2cc(C(=O)NCC(=O)N[C@@H](CCCNC(=N)N)C(=O)N[C@@H](CCCCN)C(=O)N[C@@H](CCCCN)C(=O)N[C@@H](CCCNC(=N)N)C(=O)N[C@@H](CCCNC(=N)N)C(=O)N[C@@H](CCC(N)=O)C(=O)N[C@@H](CCCNC(=N)N)C(=O)N[C@@H](CCCNC(=N)N)C(=O)N[C@@H](CCCNC(=N)N)C(=O)NCC(N)=O)ccc21 [TMR-TAT]
[1]; e.g. 436 or 470 nm
  endosomal release on exposure to light of wavelengths not absorbed by TMR: No endosomal release
[1]; incubation 1 h 37°C (3 µM; TMR-K9 10 µM), washed, irradiated at 560±20 nm
  photo-induced endosomal release (photoendosomolytic activity) at 560 nm: release of the fluorescent peptides from endosomes into the cytosol; also recorded: escape of TMR-TAT from endocytic organelles into the cytosol
[2]
  photo-induced activities (endosomal release, blebbing, SYTOX Blue staining): could be reproduced; also recorded: membrane blebs are formed on the cell surface, and the nuclei of cells are stained by SYTOX® Blue
[3]
  endocytic uptake by cells: punctate intracellular distribution
[4]
  cytotoxicity in the absence of light: negligible
